According to patent publication US8013187B2, “2-cyclopenten-1-one oxime derivatives inhibiting production of TNF-α” (Amorepacific Corporation, priority 2004, dated 2011):

What was measured:
[1] = test system: production of TNF-α in rat PBMCs; experiment: Inhibition of TNF-α production in rat PBMCs (LPS/IFN-γ stimulated, ELISA); type: cell-based; settings: PBMC; for IC50: rat PBMCs, LPS + IFN-γ, 18 hours
Experimental: Compounds of this invention were evaluated for their ability to inhibit the production of TNF-α in stimulated immune cells. […] Compounds of the present invention were evaluated for their therapeutic activity in animal models for inflammatory or immunological disorders. Also compounds of this invention were assayed for their ability to inhibit PDE4 isozymes.
Inhibition of TNF-α Production in Rat PBMCs: Compounds of the present invention were evaluated for their ability to inhibit the production of TNF-α in rat peripheral blood mononuclear cells (PBMCs) as described in the literature. [Exp. Geront. vol 37, 235-247 (2002)] In brief, 6 ml rat blood drawn from the abdominal vein as treated with ACD (acid/citrate/dextrose) was carefully added in a tube containing 6 ml Ficoll 1077, and the tube was centrifuged for 30 min at 1500 rpm (415 G) at room temperature. The cell fraction (middle fraction) was suspended in a 50 ml tube containing phosphate buffered saline (PBS). The tube was centrifuged for 5 min at 2000 rpm (737 G). The resulting pellet was suspended in 6 ml PBS and 6 ml Ficoll 1077, and centrifuged for 30 min at 1500 rpm (415 G) at room temperature to remove remaining plasma. The cell fraction was suspended in PBS and centrifuged for 5 min at 2000 rpm. Such a washing was repeated twice. Then the collected cells were suspended in 10 ml RPMI-1640 containing 10% FBS and further diluted to contain 4×10^6 cells per ml. The cell suspension was dispensed into a 96-well plate at 100 μl per well, which was pre-supplemented with 1 μl of either DMSO (placebo) or a DMSO stock solution containing a designated concentration of a compound of this invention. The plate was cultured for an hour at 37° C. under 5% CO2 and 95% O2. To each well, was added 100 μl RPMI-1640 containing 0.1 μg/ml LPS, 5 U/ml IFN-γ, and 10% FBS. Then the plate was subjected to a culture for 18 hours at 37° C. under 5% CO2 and 95% O2. An aliquot of the supernatant from each well was subjected to an ELISA assay to determine the TNF-α level in the well.

SMILES	melting point [°C]	IC50 [1] [µg/mL]	inhibition at 0.3 µg/mL ([1]; Rattus norvegicus, @ 0.3 μg/ml) [%]	inhibition at 3 µg/mL ([1]; Rattus norvegicus, @ 3 μg/ml) [%]
ON=C1CCC(C2CCCC2)=C1c1cccc(O)c1 [Example 24, 3-cyclopentyl-2-(3-hydroxyphenyl)-2-cyclopenten-1-one oxime]	207 to 209	–	–	–
CCCC1=C(c2ccc(F)cc2)C(=NO)CC1 [Example 78, 2-(4-fluorophenyl)-3-propyl-2-cyclopenten-1-one oxime]	165 to 166	0.62	–	–
CCCCC1=C(c2ccc(O)c(F)c2)C(=NO)CC1 [Example 41, 3-butyl-2-(3-fluoro-4-hydroxyphenyl)-2-cyclopenten-1-one oxime]	141 to 147	–	–	–
CC(C)CC1=C(c2ccc(F)cc2)C(=NO)CC1 [Example 85, 2-(4-fluorophenyl)-3-isobutyl-2-cyclopenten-1-one oxime]	154 to 157	0.77	–	–
CCCCC1=C(c2ccc(F)cc2)C(=NO)CC1 [Example 33, 3-butyl-2-(4-fluorophenyl)-2-cyclopenten-1-one oxime]	115 to 116	2	–	–
Cc1ccc(C2=C(C3CCCC3)CCC2=NO)cc1[N+](=O)[O-] [Example 5, 3-cyclopentyl-2-(4-methyl-3-nitrophenyl)-2-cyclopenten-1-one oxime]	178 to 180	–	66	–
CCCCC1=C(c2ccc(F)c(F)c2)C(=NO)CC1 [Example 34, 3-butyl-2-(3,4-difluorophenyl)-2-cyclopenten-1-one oxime]	–	0.3	–	–
OCc1ccc(C2=C(C3CCCC3)CCC2=NO)cc1 [Example 26, 3-cyclopentyl-2-(4-hydroxymethylphenyl)-2-cyclopenten-1-one oxime]	187 to 190	–	–	–
CC(C)CC1=C(c2cccc(C#N)c2)C(=NO)CC1 [Example 89, 2-(3-cyanophenyl)-3-isobutyl-2-cyclopenten-1-one oxime]	138 to 140	0.09	–	–
CS(=O)(=O)c1cccc(C2=C(C3CCCC3)CCC2=NO)c1 [Example 23, 3-cyclopentyl-2-(3-methylsulfonylphenyl)-2-cyclopenten-1-one oxime]	164 to 165	1.2	–	–
ON=C1CCC(C2CCCC2)=C1c1cccc2c1oc1ccccc12 [Example 19, 3-cyclopentyl-2-(4-dibenzofuranyl)-2-cyclopenten-1-one oxime]	195 to 200	1	–	–
CCCCC1=C(c2cccc(C(F)(F)F)c2)C(=NO)CC1 [Example 58, 3-butyl-2-{3-(trifluoromethyl)phenyl}-2-cyclopenten-1-one oxime]	65 to 67	–	–	59
CCCCCCCCCc1ccc(C2=C(CC(C)C)CCC2=NO)cc1F [Example 90, 2-(3-fluoro-4-n-nonylphenyl)-3-isobutyl-2-cyclopenten-1-one oxime]	85 to 86	–	–	–
CCC1=C(c2ccc(F)cc2)C(=NO)CC1 [Example 81, 3-ethyl-2-(4-fluorophenyl)-2-cyclopenten-1-one oxime]	168 to 169	~3	–	–
O=[N+]([O-])c1cccc(C2=C(C3CCCC3)CCC2=NO)c1 [Example 4, 3-cyclopentyl-2-(3-nitrophenyl)-2-cyclopenten-1-one oxime]	162 to 163	–	–	–
CCCCCC1=C(c2cccc([N+](=O)[O-])c2)C(=NO)CC1 [Example 71, 2-(3-nitrophenyl)-3-pentyl-2-cyclopenten-1-one oxime]	79 to 80	–	–	–
O=[N+]([O-])c1cccc(C2=C(C3CCCCC3)CCC2=NO)c1 [Example 31, 3-cyclohexyl-2-(3-nitrophenyl)-2-cyclopenten-1-one oxime]	201 to 202	–	–	–
ON=C1CCC(C2CCCCC2)=C1c1ccc(F)c(F)c1 [Example 30, 3-cyclohexyl-2-(3,4-difluorophenyl)-2-cyclopenten-1-one oxime]	–	< 0.1	–	–
OCc1cccc(C2=C(C3CCCC3)CCC2=NO)c1 [Example 25, 3-cyclopentyl-2-(3-hydroxymethylphenyl)-2-cyclopenten-1-one oxime]	–	1.5	–	–
